Source: patent US12583884B2, “3beta-(benzyloxy)-17alpha-methyl-pregn-5-en-20-one for use in the treatment of cognitive disorders” (AELIS FARMA, priority 2018, dated 2026)

Molecular target: human CB1 receptor (Homo sapiens, UniProt P21554)
Test: THC-induced decrease of cAMP in CHO-hCB1 cells
Assay type: cell-based
Details: 1 nM, 10 nM, 100 nM and 1 μM
Description: CHO-CB1-C2 cells were treated by concomitantly adding THC and the test compound for 45 minutes. Forskolin (2.5 μM) was also simultaneously added in all the conditions tested to sustain cAMP basal level.
At the end of the treatment, cells were lysed to proceed with the cAMP quantification. All measures were performed in triplicates in one experiment. The quantitative determination of cAMP was performed through a competitive fluorescence immunoassay. Data were expressed as % of Delta Fluorescence (Delta F) that was calculated as follows: Delta F %=(Sample Fluorescence−Negative control Fluorescence)/Negative control Fluorescence.

Chain of human CB1 receptor (P21554 whole entry): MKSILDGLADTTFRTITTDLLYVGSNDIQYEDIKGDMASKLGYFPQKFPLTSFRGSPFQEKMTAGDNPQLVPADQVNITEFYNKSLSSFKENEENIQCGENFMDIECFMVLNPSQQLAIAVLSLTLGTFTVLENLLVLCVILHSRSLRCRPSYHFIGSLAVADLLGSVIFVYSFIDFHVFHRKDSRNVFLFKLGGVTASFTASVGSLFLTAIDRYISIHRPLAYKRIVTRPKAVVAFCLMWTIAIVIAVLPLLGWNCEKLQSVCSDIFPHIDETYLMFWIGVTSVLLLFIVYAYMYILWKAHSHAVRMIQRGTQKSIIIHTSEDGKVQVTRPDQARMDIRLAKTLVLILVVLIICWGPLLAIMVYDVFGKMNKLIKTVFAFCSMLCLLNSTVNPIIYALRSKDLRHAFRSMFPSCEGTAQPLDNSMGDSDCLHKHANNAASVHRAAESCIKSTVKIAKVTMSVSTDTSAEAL

CC(=O)[C@@]1(C)CC[C@H]2[C@@H]3CC=C4C[C@@H](OCc5ccccc5)CC[C@]4(C)[C@H]3CC[C@@]21C [3Bn17MeP, 3β-benzyloxy, 17α-methyl-pregn-5-en-20-one]
Effect on inhibition of cAMP induced by THC: does not modify
